{"source": "paper PMC9760738", "about": "“Pharmacokinetics, absorption, distribution, metabolism and excretion of the MEK inhibitor zapnometinib in rats” (Frontiers in Pharmacology, 2022)", "key": {"[1]": {"assay": "Metabolite profiling of plasma extracts by radio-HPLC (Group 3)", "assay_type": "in vivo, rat", "conditions": "for concentration at 2 h / concentration at 8 h: rat, plasma, oral, 30 mg/kg, read-out: Concentration in plasma extract", "experimental": "Metabolite profiling was performed by HPLC analysis according to the company’s SOP of plasma (Group 3), urine (Group 2) and feces (Group 2) samples. Briefly, for metabolite profiling and identification, radioactivity (cpm) was measured in HPLC eluent fractions that had previously been collected at 12 s intervals for the duration of the run (65 min) into 96-well Deep Well LumaPlates and dried in a centrifugal evaporator. A Microbeta2 scintillation counter was used to count each plate, with wells simultaneously counted for 2 min, after an initial 5 min delay. A subsample of plasma was analyzed (ca 2 ml) taken from individual animals to provide representative samples, for each sex, at 2, 8 and 168 h post dose (n = 6). Equal proportions of the total urine weight voided from Group 2 animals was pooled to provide representative samples for each sex at 0–6 h, 6–24 h and 24–48 h post dose (n = 6). Equal proportions of the total feces homogenate generated from the samples voided by the three rats (Group 2) were pooled to provide representative samples for each sex at 0–24 and 24–48 h post dose ([…]). Sample preparation was carried out due to the company’s SOPs (see Supplementary Methods). The extractability was ≥95.0% (95.0–100%) TRR (Total Radioactive Residue) for plasma and ≥88.3% (88.3%–91.3%) TRR for feces. As reference, a standard solution of zapnometinib (0.1 mg/ml in acetonitrile) was used. To assess HPLC method suitability, a column recovery was assessed on each representative sample (one per matrix). The recovery of radioactivity from the HPLC column was determined by collecting the column eluent, following an injection of a representative sample (one per matrix), and determining the radioactive content by submitting aliquots for LSC analysis. The results of these analyses were between 93.8%–105.1% column recoveries.\nNext, radioactive metabolic components of zapnometinib in urine, plasma and feces extracts were isolated and profiled. The components were quantified by fraction collection/scintillation analysis, as appropriate to the radioactivity concentrations. Mass spectroscopy was used to propose identities of the major circulatory and excreted metabolites, and to correlate the metabolites detected in the different matrices. Components identified by LC-MS/MS were related to the quantified HPLC analysis by comparison of related radiochromatograms and comparison of elution order. Representative HPLC radiochromatograms of pooled feces extracts collected during 0–24 and 24–48 h post dose from male and female rats (which reveal the main metabolites) were qualitatively similar with some minor sex differences (Figure 3)."}, "[2]": {"set-up": "method as in Lorusso et al., 2005", "conditions": "acid metabolite after CI-1040 dosing in patients; ref Lorusso et al., 2005; cited from earlier work"}}, "note": "Where two headings read alike, the source gives them in different places."}
{"smiles": "O=C(O)c1ccc(F)c(F)c1Nc1ccc(I)cc1Cl", "note": "[zapnometinib, 2-(2-Chloro-4-iodophenylamino)-3,4-difluorobenzoic acid]", "values": [{"measurement": "Proportion in plasma extract", "setting": "[1]; 2 hours, female rats", "value": 97.9, "unit": "% sample"}, {"measurement": "Proportion in plasma extract", "setting": "[1]; 2 hours, male rats", "value": 92.0, "unit": "% sample"}, {"measurement": "Proportion in plasma extract", "setting": "[1]; 8 hours, female rats", "value": 88.7, "unit": "% sample"}, {"measurement": "Proportion in plasma extract", "setting": "[1]; 8 hours, male rats", "value": 92.5, "unit": "% sample"}, {"measurement": "Extractability of plasma radioactivity", "setting": "[1]; all measured time points", "value": "> 90", "unit": "% TRR"}, {"measurement": "Plasma concentration of unchanged zapnometinib", "setting": "[1]; by 168 h post dose", "value": "below the limit of quantification"}, {"measurement": "concentration at 2 h", "setting": "[1]; 2 hours, female rats", "value": 78400, "unit": "ng/g"}, {"measurement": "concentration at 2 h", "setting": "[1]; 2 hours, male rats", "value": 64400, "unit": "ng/g"}, {"measurement": "concentration at 8 h", "setting": "[1]; 8 hours, female rats", "value": 80700, "unit": "ng/g"}, {"measurement": "concentration at 8 h", "setting": "[1]; 8 hours, male rats", "value": 72100, "unit": "ng/g"}, {"measurement": "Plasma concentrations relative to those of CI-1040", "setting": "[2]", "value": "approximately 30 fold"}]}
